The source made the active and inactive calls.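 The calls were made as follows: active = compounds giving half or more protection of infected cells from virus-caused growth loss, again on retest; inactive = the rest.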 Where a SMILES comes first, the peptide text is derived from it. [ ]: non-standard residue; d: D form. The star is where a group is joined. ξ: configuration not given here. NMeN = CN[C@@H](CC(N)=O)C(=O)O; NMeV = CN[C@H](C(=O)O)C(C)C; ξNMeV = CNC(C(=O)O)C(C)C; Boc = CC(C)(C)OC(=O)*; ξNMeA = CNC(C)C(=O)O; OBn = c1ccc(CO*)cc1
Test system: CEM cells HIV-1 protection, formazan growth assay
Assay: NCI AIDS Antiviral Assay
Details: for IC50: measured here: growth of uninfected CEM cells
How it was run: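 Human CEM cells, uninfected and HIV-1-infected, exposed to five drug concentrations; growth measured by soluble formazan assay and scored as percent protection from infection, with protecting compounds retested.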

Question: How did the EC50 turn out when `CCCCCCCCCCCCCCCCCC1=Nc2ccccc2NC(=O)C1` was run?
Answer: The EC50 was greater than 100 µM.

Question: What about the IC50 of the same compound?
Answer: The IC50 was greater than 100 µM.

Question: For `CC(=C\c1ccccc1)/C=C(\C#N)C(N)=O`, which EC50 is on record?
Answer: Its EC50 is greater than 200 µM.

Question: What about the IC50 of the same compound?
Answer: Its IC50 is 97.7 µM.

Question: What does the source list for `N#C/C(=C\c1c[nH]c2ccccc12)C(=O)c1ccc(O)c(O)c1`?
Answer: EC50: > 85.1 µM; IC50: 46.8 µM

Question: How did the EC50 turn out when `COc1cc(C=Nc2ccc(C(C)C)cc2)cc(OC)c1OC` was run?
Answer: Its EC50 is greater than 16.6 µM.

Question: What about the IC50 of the same compound?
Answer: The IC50 was greater than 16.6 µM.

Question: For `Cc1ccc(NC(=O)CCC(=O)C(C#N)c2ccc(Cl)cc2)cc1C` (configuration not stated), which EC50 is on record?
Answer: Its EC50 is greater than 708 µM.

Question: And the IC50?
Answer: The IC50 was greater than 708 µM.

Question: With `COc1ccc(CNc2nc3ccccc3nc2C(=O)O)cc1OC` as the compound, how does the EC50 read?
Answer: The EC50 was greater than 200 µM.

Question: What about the IC50 of the same compound?
Answer: Its IC50 is 95.5 µM.

Question: Which EC50 does the source give for `O/N=C1/CC2(N3CCOCC3)C3CC/C(=N\O)C2CC1(Cc1ccccc1)C3` (configuration not stated) here?
Answer: Its EC50 is greater than 200 µM.

Question: And the IC50?
Answer: The IC50 was 123 µM.

Question: Which results are given for `COc1ccc(N=Nc2c(-c3c(OC)cc4occc4c3OC)[nH]c(=O)c(C#N)c2C)cc1`?
Answer: EC50: > 200 µM; IC50: 120 µM

Question: With `CC1(CF)SCc2nc3ccccc3n21` (configuration not stated) as the compound, how does the EC50 read?
Answer: The EC50 was greater than 200 µM.

Question: What about the IC50 of the same compound?
Answer: Its IC50 is greater than 200 µM.

Question: What does the source list for `CCC1=C(CC)C1(C#N)[N+](=O)[O-]`?
Answer: EC50: > 251 µM; IC50: > 251 µM

Question: Which results are given for `N#Cc1sc2c(c1OC(=O)c1ccc(Cl)cc1Cl)c(=O)n(-c1ccccc1)c(=S)n2-c1ccccc1`?
Answer: EC50: > 200 µM; IC50: 1.23 µM

Question: `Cc1cn([C@@H]2C[C@](C)(CO)N(C)O2)c(=O)[nH]c1=O` was tested. Which EC50 did it give?
Answer: The EC50 was greater than 200 µM.

Question: And the IC50?
Answer: Its IC50 is greater than 200 µM.

Question: `COC(=O)C(C)N(C)C(=O)[C@H](CC(N)=O)N(C)C(=O)[C@@H]1CCCN1C(=O)[C@H](C(C)C)N(C)C(=O)C(C(C)C)N(C)C(=O)[C@@H](NC(=O)OC(C)(C)C)C(C)C` (some centres not stated) (Boc-V[ξNMeV][NMeV]P[NMeN][ξNMeA]-OMe) was tested. Which EC50 did it give?
Answer: Its EC50 is greater than 324 µM.

Question: And the IC50?
Answer: Its IC50 is greater than 324 µM.

Question: For `Cc1cc(=O)n(-c2c(C)cccc2Cl)c(/C=C(\O)c2ccncc2)n1`, which EC50 is on record?
Answer: The EC50 was greater than 4.07 µM.

Question: What about the IC50 of the same compound?
Answer: Its IC50 is greater than 4.07 µM.

Question: `CC(C)CC(NC(=O)OC(C)(C)C)C(=O)N1CCCC1C(=O)OCc1ccccc1` (stereo not drawn) (Boc-Leu-Pro-OBn; configuration not given here) was tested. Which EC50 did it give?
Answer: The EC50 was greater than 200 µM.

Question: And the IC50?
Answer: Its IC50 is 52.5 µM.

Question: `CC1(C)OC2O[C@H](C3OC[C@H]4O[C@@H](n5ccc(=O)[nH]c5=O)C(O)[C@H]4N3O)[C@@H]3OC(C)(C)O[C@@H]3C2O1` (some centres not stated) was tested. Which EC50 did it give?
Answer: Its EC50 is greater than 200 µM.

Question: What about the IC50 of the same compound?
Answer: Its IC50 is 105 µM.

Question: `COC(=O)/C=c1\s/c(=C\C(=O)OC)c2ccccc12` was tested. Which outcome did it give?
Answer: The outcome was “inactive”.

Question: How did the outcome turn out when `CCOC(=O)C1NS(=O)(=O)NC(C(=O)OCC)NS(=O)(=O)N1` (configuration not stated) was run?
Answer: Its outcome is “inactive”.

Question: With `O=C(O)CCCCCCCCCCOc1ccc(I)cc1` as the compound, how does the EC50 read?
Answer: The EC50 was greater than 200 µM.

Question: And the IC50?
Answer: The IC50 was 28.2 µM.

Question: For `O=C(CSc1nnc(-c2ccc(N=Cc3ccc(Cl)cc3)cc2)o1)Nc1cccc([N+](=O)[O-])c1`, which EC50 is on record?
Answer: Its EC50 is greater than 5.5 µM.

Question: And the IC50?
Answer: Its IC50 is 2.24 µM.

Question: What does the source list for `COP(=O)(OC)C1=c2c(C)noc2=C2C=COC2C1=O` (configuration not stated)?
Answer: EC50: > 200 µM; IC50: > 200 µM

Question: `O=C(OC1=C(OC(=O)c2ccc(N=Nc3ccccc3)cc2)c2ccccc21)c1ccc(N=Nc2ccccc2)cc1` was tested. Which EC50 did it give?
Answer: Its EC50 is greater than 200 µM.

Question: What about the IC50 of the same compound?
Answer: The IC50 was greater than 200 µM.

Question: What does the source list for `Nc1nnnn1CCCl`?
Answer: EC50: > 200 µM; IC50: > 200 µM

Question: For `O=S(=O)(CC(Cl)c1ccccc1)c1nc2ccccc2s1` (configuration not stated), which EC50 is on record?
Answer: Its EC50 is greater than 200 µM.

Question: And the IC50?
Answer: Its IC50 is 2.14 µM.

Question: With `O=C1C[C@@H]([C@H](NC(=O)OCc2ccccc2)C(=O)O)ON1` as the compound, how does the outcome read?
Answer: Its outcome is “inactive”.

Question: Which EC50 does the source give for `CC(O)C(NC(=O)c1ccccc1)C(=O)N(Cc1ccccc1)Cc1ccccc1` (configuration not stated) here?
Answer: Its EC50 is greater than 17.8 µM.

Question: And the IC50?
Answer: Its IC50 is greater than 17.8 µM.

Question: `NS(=O)(=O)c1ccc(NC(=O)c2cccn3c(=O)c4ccccc4nc23)cc1` was tested. Which outcome did it give?
Answer: The outcome was “inactive”.

Question: For `CC(=O)OCC(OC(C)=O)C(OC(C)=O)C(OC(C)=O)C(=O)CNn1c(-c2ccc(C)cc2)nc2ccccc2c1=O` (configuration not stated), which outcome is on record?
Answer: The outcome was “inactive”.

Question: Which EC50 does the source give for `CCOC(=O)/C(=C\c1ccccc1OC)P(=O)(OCC)OCC` here?
Answer: The EC50 was greater than 724 µM.

Question: And the IC50?
Answer: The IC50 was 13.2 µM.

Question: With `NC(=S)N/N=C(\CC1OC(=O)c2ccccc21)c1ccc(Cl)cc1` (configuration not stated) as the compound, how does the EC50 read?
Answer: Its EC50 is greater than 83.2 µM.

Question: And the IC50?
Answer: Its IC50 is 7.24 µM.

Question: `CC1C2CCC3(CCC4C5(C)CCCC4(CN(CCO)C5)C3C2)C1O` (configuration not stated) was tested. Which outcome did it give?
Answer: The outcome was “inactive”.

Question: How did the EC50 turn out when `COc1c(NC(=O)CC(C)=O)[c]([Hg][O]C(C)=O)c(OC)c(Cl)[c]1[Hg][O]C(C)=O` was run?
Answer: Its EC50 is greater than 0.692 µM.

Question: And the IC50?
Answer: The IC50 was greater than 0.692 µM.

Question: For `CC1=NN(c2ccccc2)C(=O)CC1`, which EC50 is on record?
Answer: The EC50 was greater than 1320 µM.

Question: And the IC50?
Answer: The IC50 was greater than 1320 µM.

Question: How did the EC50 turn out when `C/C(=N/OC(=O)N(C)C)c1cccc(Cl)c1` was run?
Answer: The EC50 was greater than 200 µM.

Question: What about the IC50 of the same compound?
Answer: The IC50 was 166 µM.

Question: How did the EC50 turn out when `CCOP(=O)(OCC)C(C)(C)OC(=O)NC(F)(F)F` was run?
Answer: The EC50 was greater than 200 µM.

Question: And the IC50?
Answer: The IC50 was greater than 200 µM.

Question: `O=C(Nc1nc(=S)[nH][nH]1)C(=O)C(c1cnc2ccc([N+](=O)[O-])cc2n1)[N+](=O)[O-]` (configuration not stated) was tested. Which EC50 did it give?
Answer: The EC50 was greater than 447 µM.

Question: And the IC50?
Answer: The IC50 was 79.4 µM.

Question: How did the EC50 turn out when `COC1C(O)CC(=O)OC(C)C/C=C/C=C/C(OC2CCC(N(C)C)C(C)O2)C(C)CC(CC=O)C1OC1OC(C)C(OC2CC(C)(O)C(O)C(C)O2)C(N(C)C)C1O` (configuration not stated) was run?
Answer: Its EC50 is greater than 200 µM.

Question: And the IC50?
Answer: The IC50 was greater than 200 µM.

Question: Which EC50 does the source give for `O=[N+]([O-])CC1CCCCC1O` (configuration not stated) here?
Answer: Its EC50 is greater than 200 µM.

Question: What about the IC50 of the same compound?
Answer: Its IC50 is 115 µM.

Question: With `O=C(CCC[n+]1ccccc1)CC(O)(C(F)(F)F)C(F)(F)F` as the compound, how does the EC50 read?
Answer: Its EC50 is greater than 200 µM.

Question: And the IC50?
Answer: Its IC50 is greater than 200 µM.

Question: With `O=C(N/N=C/c1ccc(Br)cc1)N/N=C/c1ccc(Br)cc1` as the compound, how does the EC50 read?
Answer: Its EC50 is greater than 200 µM.

Question: What about the IC50 of the same compound?
Answer: Its IC50 is 31.6 µM.

Question: Which EC50 does the source give for `COC(=O)/C=C(/C)n1nc2ccccc2n1` here?
Answer: Its EC50 is greater than 200 µM.

Question: What about the IC50 of the same compound?
Answer: The IC50 was greater than 200 µM.

Question: Which results are given for `N=c1c2c(ncn1N)Oc1c(c(-c3ccccc3)nn1-c1ccccc1)C2c1ccc(Cl)cc1` (configuration not stated)?
Answer: EC50: > 200 µM; IC50: 2.09 µM

Question: `CCN(CC)c1ccc2c(c1)Oc1cc(N(CC)CC)ccc1C2c1ccccc1C(=O)O` was tested. Which EC50 did it give?
Answer: The EC50 was greater than 200 µM.

Question: And the IC50?
Answer: Its IC50 is greater than 200 µM.

Question: How did the EC50 turn out when `CN/C=C(\C(=O)c1ccc(OC)c(OC)c1)c1ccc(OC)cc1` was run?
Answer: Its EC50 is greater than 398 µM.

Question: What about the IC50 of the same compound?
Answer: The IC50 was 6.92 µM.

— PubChem BioAssay AID179 (DTP/NCI, 2004)
